Experimental data reported in patent publication US20240101592A1, “COMPOSITIONS AND METHODS FOR TREATING CNS DISORDERS” (Sage Therapeutics, Inc., priority 2020, published 2024).
pIC50: −log10 of the molar value.

Target: GABAA receptor ([35S]-TBPS binding, rat brain cortical membranes)
Assay: Steroid inhibition of [35S]-TBPS binding
Conditions: 3 nM [35S]-TBPS, in the presence of 5 mM GABA, 90 min at room temp
Description: Steroid Inhibition of TBPS Binding
[^35S]-t-Butylbicyclophosphorothionate (TBPS) binding assays using rat brain cortical membranes in the presence of 5 mM GABA has been described (Gee et al, J. Pharmacol. Exp. Ther. 1987, 241, 346-353; Hawkinson et al, Mol. Pharmacol. 1994, 46, 977-985; Lewin, A. H et al., Mol. Pharmacol. 1989, 35, 189-194).
Briefly, cortices are rapidly removed following decapitation of carbon dioxide-anesthetized Sprague-Dawley rats (200-250 g). The cortices are homogenized in 10 volumes of ice-cold 0.32 M sucrose using a glass/teflon homogenizer and centrifuged at 1500×g for 10 min at 4° C. The resultant supernatants are centrifuged at 10,000×g for 20 min at 4° C. to obtain the P2 pellets. The P2 pellets are resuspended in 200 mM NaCl/50 mM Na—K phosphate pH 7.4 buffer and centrifuged at 10,000×g for 10 min at 4° C. This washing procedure is repeated twice and the pellets are resuspended in 10 volumes of buffer. Aliquots ([…]) of the membrane suspensions are incubated with 3 nM [^35S]-TBPS and […] aliquots of test drug dissolved in dimethyl sulfoxide (DMSO) (final 0.5%) in the presence of 5 mM GABA. The incubation is brought to a final volume of 1.0 mL with buffer. Nonspecific binding is determined in the presence of […] and ranged from 15 to 25%. Following a 90 min incubation at room temp, the assays are terminated by filtration through glass fiber filters (Schleicher and Schuell No. 32) using a cell harvester (Brandel) and rinsed three times with ice-cold buffer. Filter bound radioactivity is measured by liquid scintillation spectrometry. Non-linear curve fitting of the overall data for each drug averaged for each concentration is done using Prism (GraphPad). […] The concentration of test compound producing 50% inhibition (IC50) of specific binding and the maximal extent of inhibition (Imax) are determined for the individual experiments with the same model used for the overall data and then the means±SEM.s of the individual experiments are calculated.
Various compounds are or can be screened to determine their potential as modulators of [^35S]-TBPS binding in vitro. These assays are or can be performed in accordance with the above.

Row | SMILES | pIC50
1 | CC(=O)[C@H]1CC[C@@]23C[C@@]12CC[C@H]1[C@H]3CC[C@H]2C[C@](C)(O)CC[C@@]21C [Compound No. 22, 1-((3R,5S,8R,9S,10S,13S,14S,17S)-3-hydroxy-3,10-dimethyltetradecahydro-1H-13,14-methanocyclopenta[a]phenanthren-17-yl)ethanone] | 6.00 to 7.00
2 | Cc1nnnn1C[C@H]1C[C@@H]1[C@H]1CC[C@H]2[C@@H]3CC[C@@H]4C[C@](C)(O)CC[C@@H]4[C@H]3CC[C@]12C [Compound No. 26, (3R,5R,8R,9R,10S,13S,14S,17R)-3,13-dimethyl-17-((1R,2S)-2-((5-methyl-1H-tetrazol-1-yl)methyl)cyclopropyl)hexadecahydro-1H-cyclopenta[a]phenanthren-3-ol] | > 7.00
3 | C[C@@]1(O)CC[C@H]2[C@H](CC[C@@H]3[C@@H]2CC[C@@]2(C)[C@H]3C[C@H]3C[C@H]3[C@@H]2[C@](C)(O)Cn2cc(C#N)cn2)C1 [Compound No. 2, 1-((S)-2-hydroxy-2-((2R,4aS,4bR,6aS,7S,7aR,8aR,9aS,9bR,11aR)-2-hydroxy-2,6a-dimethyloctadecahydro-1H-cyclopropa[b]chrysen-7-yl)propyl)-1H-pyrazole-4-carbonitrile] | > 7.00
4 | C[C@@]1(O)CC[C@H]2[C@H](CC[C@@H]3[C@@H]2CC[C@]2(C)[C@H](C(=O)Cn4cc(C#N)cn4)[C@H]4C[C@H]4C[C@@H]32)C1 [Compound No. 7, 1-(2-((2R,4aS,4bR,6aS,7R,7aS,8aS,9aS,9bR,11aR)-2-hydroxy-2,6a-dimethyloctadecahydro-1H-cyclopropa[b]chrysen-7-yl)-2-oxoethyl)-1H-pyrazole-4-carbonitrile] | < 6.00
5 | C[C@@]1(O)CC[C@H]2[C@H](CC[C@@H]3[C@@H]2CC[C@@]2(C)[C@H]3C[C@H]3C[C@H]3[C@@H]2C(=O)Cn2cc(C#N)cn2)C1 [Compound No. 1, 1-(2-((2R,4aS,4bR,6aS,7S,7aR,8aR,9aS,9bR,11aR)-2-hydroxy-2,6α-dimethyloctadecahydro-1H-cyclopropa[b]chrysen-7-yl)-2-oxoethyl)-1H-pyrazole-4-carbonitrile] | > 7.00
